Measurements as given in patent US9999672B2, “Pharmaceutical compositions of fumaric acid esters” (XenoPort, Inc., priority 2014, dated 2018).
Read-outs that look alike come from different tables or passages of the source.

Assays:
[1] = assay type: physicochemical; settings: 53 h
Method: Approximately 50 mg (N,N-diethylcarbamoyl)methyl methyl (2E)but-2-ene-1,4-dioate powder was spread into a thin layer (˜1 mm) in open quartz containers. The sample was then placed in an ICH2 Photoreactor (Luzchem Research Inc.) with 16 cool white fluorescent lamps (F8T5/CW-8 Watt) installed. The light power was 22.8×10^3 lux with low level of near UV light (320-400 nm) at 2.2 watt/m^2. The sample was taken out after 53 hours to achieve a light exposure of 1.2 million lux hours. The sample solution was prepared at 0.2 mg/mL in diluent (water/acetonitrile/H3PO4 (80/20/0.05 by volume)).
To quantify the photodegratation of the (N,N-diethylcarbamoyl)methyl methyl (2E)but-2-ene-1,4-dioate powder, the presence of (N,N-diethylcarbamoyl)methyl (1S,3S,2R,4R)-2-{[(N,N-diethylcarbamoyl)methyl]oxycarbonyl}-3,4-bis(methoxycarbonyl)cyclobutanecarboxylate (“compound (1)”) was quantified. The structure of compound (1) is shown below:
The amount (weight percent) of compound (1) in the sample was determined by reverse phase HPLC using a C18 column and a 30-minute gradient method according to Table 1 where Mobile Phase A is water/0.05% H3PO4 and Mobile Phase B is water/acetonitrile/H3PO4 (10/90/0.05 by volume) with UV detection at 210 nm. The amount of compound (1) found was 29.0 wt %.

[2] = assay type: physicochemical; settings: 53 h, 0.1 mg/mL, pH 4
Method: A quartz flask containing approximately 20 mL of 0.1 mg/mL (N,N-diethylcarbamoyl)methyl methyl (2E)but-2-ene-1,4-dioate in 50 mM pH 4.0 citrate buffer was placed in an ICH2 Photoreactor (Luzchem Research Inc.) with 16 cool white fluorescent lamps (F8T5/CW-8 Watt) installed. The light power was 22.8×10^3 lux with low level of near UV light (320-400 nm) at 2.2 watt/m^2. The sample was taken out after 53 hours to achieve a light exposure of 1.2 million lux hours.
To quantify the photodegratation of the (N,N-diethylcarbamoyl)methyl methyl (2E)but-2-ene-1,4-dioate powder, the presence of (N,N-diethylcarbamoyl)methyl methyl (2Z)but-2-ene-1,4-dioate (“compound (2)”) was quantified. The structure for compound (2) is shown below:
The sample was analyzed using the same HPLC method as described in Example 1. The amount of compound (2) found was 22.3 wt %.

[3] = assay type: physicochemical; settings: 2.1 h
Method: Approximately 50 mg (N,N-Diethylcarbamoyl)methyl methyl (2E)but-2-ene-1,4-dioate powder was spread into a thin layer in open quartz containers. The sample was then placed in an ICH2 Photoreactor (Luzchem Research Inc.) with 16 near-UV fluorescent lamps (Hitachi FL8BL-B) installed. The near-UV light (320-400 nm) power was 94.2 watt/m^2. The sample was taken out after 2.1 hours to achieve a light exposure of 200 watt hour/m^2. The sample was prepared and analyzed the same way as described in Example 1. The amount of compound (1) found was 10.3 wt %.

CCN(CC)C(=O)COC(=O)/C=C/C(=O)OC [(N,N-Diethylcarbamoyl)methyl methyl (2E)but-2-ene-1,4-dioate]
amount of compound (1) found (photodegradant) [1]: 29.0 wt % | amount of compound (2) found (2Z isomer photodegradant) [2]: 22.3 wt % | amount of compound (1) found (photodegradant) [3]: 10.3 wt %
